Data reported in patent US12128035B2, “Activating pyruvate kinase R” (Novo Nordisk Health Care AG, priority 2021, dated 2024).
Where “and” joins values, the source holds several entries; their conditions need not be identical. Identical values can stand only once. Entries after “also recorded” stand apart in the source; their conditions may differ.

What was measured:
[1] = molecular target: T1, PKR in mouse red blood cells (Mus musculus, UniProt P53657); assay: Cell assay: PKR activation in mouse RBCs; format: cell-based
T1 construct: endogenous in cells; host or cells: mouse RBCs freshly isolated from whole blood
T1 sequence (P53657 whole entry): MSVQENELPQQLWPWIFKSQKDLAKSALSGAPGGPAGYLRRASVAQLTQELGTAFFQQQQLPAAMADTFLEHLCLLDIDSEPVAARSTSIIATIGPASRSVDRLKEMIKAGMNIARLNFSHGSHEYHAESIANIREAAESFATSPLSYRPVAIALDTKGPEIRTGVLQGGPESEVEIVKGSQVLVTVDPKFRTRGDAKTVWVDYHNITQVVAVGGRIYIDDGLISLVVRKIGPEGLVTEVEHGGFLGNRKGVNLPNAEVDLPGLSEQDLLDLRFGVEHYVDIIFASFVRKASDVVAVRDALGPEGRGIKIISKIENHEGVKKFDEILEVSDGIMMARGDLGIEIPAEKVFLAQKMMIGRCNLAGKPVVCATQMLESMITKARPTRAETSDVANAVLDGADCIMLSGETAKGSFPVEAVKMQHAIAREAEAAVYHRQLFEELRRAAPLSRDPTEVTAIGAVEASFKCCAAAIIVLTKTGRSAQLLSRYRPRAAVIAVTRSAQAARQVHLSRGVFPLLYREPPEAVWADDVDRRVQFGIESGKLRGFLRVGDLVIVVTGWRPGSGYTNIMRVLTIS
Text: Mouse RBCs were isolated fresh from whole blood using a Ficoll gradient and assayed with methods similar to those used in the human RBCs assays.

[2] = tested on: Human SCD cells; assay: Ex vivo sickling under hypoxic conditions; format: cell-based; conditions: for Net % of Sickled Cells / % Protection: 10 μM
Description: Red blood cells from SCD patients were used to evaluate the effects of Compound 1 on Hgb affinity for oxygen (i.e., oxygen affinity) and sickling under hypoxic conditions. Cells were incubated at 37° C. for 1, 2, and 3 hr with HEPES buffered saline (HBS) (untreated), HBS+dimethyl sulfoxide (DMSO) (vehicle), or 10 μM Compound 1. To assess oxygen dissociation, Hgb oxygen equilibrium curves were collected during deoxygenation.
Compound 1 (10 μM) reduced cell sickling under severe hypoxic conditions of 2% oxygen (PO2 of <20 mmHg) for up to 20 min (Table 8).

[3] = molecular target: T2, aromatase (Homo sapiens, UniProt P11511); assay: Aromatase inhibition; conditions: clinical trials and non-clinical testing
T2 construct: endogenous in cells; host or cells: H295R adreno-cortical carcinoma cells; healthy human subjects in vivo
T2 sequence (P11511 1-503): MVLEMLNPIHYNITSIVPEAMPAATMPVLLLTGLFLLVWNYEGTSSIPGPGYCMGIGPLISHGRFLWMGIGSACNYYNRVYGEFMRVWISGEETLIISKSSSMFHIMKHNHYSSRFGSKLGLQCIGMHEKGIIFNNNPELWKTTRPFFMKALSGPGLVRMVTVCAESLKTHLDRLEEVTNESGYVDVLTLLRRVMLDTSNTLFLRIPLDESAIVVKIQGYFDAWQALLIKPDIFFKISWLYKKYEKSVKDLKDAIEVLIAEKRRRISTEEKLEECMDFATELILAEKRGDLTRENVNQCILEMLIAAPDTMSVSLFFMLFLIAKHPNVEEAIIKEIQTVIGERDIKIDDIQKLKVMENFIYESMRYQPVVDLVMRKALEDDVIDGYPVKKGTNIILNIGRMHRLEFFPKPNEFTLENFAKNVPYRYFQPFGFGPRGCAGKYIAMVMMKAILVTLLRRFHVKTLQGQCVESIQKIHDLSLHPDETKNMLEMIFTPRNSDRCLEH
Text: Aromatase is an enzyme encoded by the CYP19A1 gene. It is located in the endoplasmic reticulum of estrogen-producing cells and catalyzes the rate-limiting step in the conversion of androgens to estrogens in many tissues. Aromatase is a cytochrome P-450 hemoprotein-containing enzyme complex that catalyzes the rate-limiting step in the production of estrogens, i.e. the conversion of androstenedione and testosterone, via three hydroxylation steps, to estrone and estradiol. Aromatase activity is present in many tissues, such as the ovaries, adipose tissue, muscle, liver, breast tissue, and in malignant breast tumors. The main sources of circulating estrogens are the ovaries in premenopausal women and adipose tissue in post-menopausal women. Aromatase catalyzes the conversion of androgens to estrone (E1), which is further converted to the potent estrogen estradiol (E2) by the enzyme 17β-HSD type 1 in the granulosa cell.
Aromatase is a key enzyme in the steroidogenic pathway that catalyzes the conversion of androgens, including testosterone, into estradiol. […]
Effects on circulating levels of estradiol and testosterone in male and female healthy subjects receiving Compound 1 or placebo for a treatment period of 14 days were evaluated. […] Testosterone and estradiol levels were assessed prior to dosing (baseline), and then on days 8, 14 and 17.

## O=C([C@H](CO)c1ccccc1)N1CC2=C(C1)CN(S(=O)(=O)c1cnc3c(c1)OCCO3)C2 (single isomer, unassigned) [Compound 1]
[1]; mean of replicates
  Max − Min (%), Mean: <100%
[1]; single replicates
  Max − Min (%): <50% and <100%
[2]; 0 min in hypoxic conditions (DMSO 7)
  Net % of Sickled Cells: 10%
[2]; 2 min in hypoxic conditions
  % Protection: −15%
[2]; 2 min in hypoxic conditions (DMSO 41)
  Net % of Sickled Cells: 47%
[2]; 5 min in hypoxic conditions
  % Protection: 14%
[2]; 5 min in hypoxic conditions (DMSO 57)
  Net % of Sickled Cells: 49%
[2]; 10 min in hypoxic conditions
  % Protection: 11%
[2]; 10 min in hypoxic conditions (DMSO 61)
  Net % of Sickled Cells: 54%
[2]; 15 min in hypoxic conditions
  % Protection: 16%
[2]; 15 min in hypoxic conditions (DMSO 68)
  Net % of Sickled Cells: 57%
[2]; 20 min in hypoxic conditions (DMSO 71)
  Net % of Sickled Cells: 60%
[2]; 20 min in hypoxic conditions (last time point)
  % Protection: 15%
[2]; severe hypoxic conditions of 2% oxygen
  percent protection (maximum): up to 16%
[3]
  aromatase inhibition: has not shown evidence of inhibition of aromatase; also recorded: absence of aromatase inhibition
